Where “and” joins values, the source holds several entries; their conditions need not be identical. Identical values can stand only once.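 Cultured in 96-well plates, cells were exposed to test compound for 48 hours across five concentrations. At the GI50, growth is halved. TGI marks complete inhibition of growth.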
Experiments:
Test in all cases: NCI anticancer screen, dose series, 48 h
[1] = system: UACC-62 melanoma
[2] = system: MOLT-4 leukemia
[3] = system: SF-268 CNS
[4] = system: SW-620 colon
[5] = system: HT29 colon
[6] = system: HOP-92 NSCLC
[7] = system: SF-539 CNS
[8] = system: TK-10 renal
[9] = system: OVCAR-5 ovarian
[10] = system: LOX IMVI melanoma

Row | SMILES | GI50 [1] [µM] | TGI [1] | GI50 [2] | TGI [2] [µM] | GI50 [3] [µM] | TGI [3] [µM] | GI50 [4] | TGI [4] [µM] | GI50 [5] | TGI [5] [µM] | GI50 [6] [µM] | TGI [6] [µM] | GI50 [7] [µM] | TGI [7] [µM] | GI50 [8] [µM] | TGI [8] [µM] | GI50 [9] [µM] | TGI [9] [µM] | GI50 [10] | TGI [10] [µM]
1 | C/C=C(\C)C(=O)O[C@H]1C=CC(=O)O[C@H]1CNC(=O)[C@H](C)O | 16.1 | 30.5 µM | 21.4 µM | 46.6 | 16.7 | 35.7 | 14.6 µM | 28.6 | 18.9 µM | 42.6 | 14.6 | 28.9 | 19.4 | 35.4 | 17.2 | 31.8 | 19.9 | 38.3 | 15.9 µM | 30.4
2 | COc1ccc(/C=C\c2cc(OC)c(OC)c(OC)c2)cc1OCC(=O)Nc1nc2ccc(C(F)(F)F)cc2s1 | 3.9 | > 100 µM | 3.75 µM | > 100 | 3.85 | 48.6 | 4.65 µM | > 100 | 14.9 µM | > 100 | 2.88 | 75.6 | 2.66 | 7.87 | 7.03 | > 100 | 5.98 | > 100 | 4.01 µM | > 100
3 | COc1c(O)ccc2c1CN1CCc3cc4c(cc3C1C2)OCO4 (stereo not given) |  | > 100 µM |  | > 100 |  | > 100 |  | > 100 |  | > 100 |  | > 100 |  | > 100 |  | > 79.6 |  | > 100 |  | > 77.8
4 | O=C(Nc1ccc(Cl)cc1)c1cc2ccccc2cc1O | 0.899 | > 100 µM | 4.19 µM | > 100 | 3.68 | > 100 | 3.62 µM | > 100 | 4.09 µM | > 100 | 1.41 | 7.77 | 4.01 | > 100 | 3.93 | > 100 | 4.07 | > 100 | 2.36 µM | 18.2
5 | O=C1CCC2(C=C(Br)C(=O)C(Br)=C2)O1 | 14.8 | 29 µM | 3.46 µM | > 23 | 15.1 | 28.6 | 1.81 µM | 3.54 | 2.89 µM | 7.82 | 3.07 | 8.89 | 2.63 | 7.14 | 2.01 | 4.14 | 15 | 29.7 | 2.53 µM | 7.53
6 | COC(=O)c1nc(NC#N)[nH]c(=O)c1C |  | > 100 µM |  | > 100 |  | > 100 |  | > 100 |  | > 100 |  | > 100 |  | > 93 |  | > 100 |  | > 100 |  | > 100
7 | Cc1ccc2c(=O)c3cccc(CC(=O)O)c3oc2c1C | > 100 | > 100 µM | > 100 µM | > 100 | > 100 | > 100 | > 100 µM | > 100 | > 100 µM | > 100 | > 100 | > 100 | > 100 | > 100 | > 100 | > 100 | > 100 | > 100 | > 100 µM | > 100
8 | COc1ccc(-c2cn[nH]c2-c2cc(OC)c(OC)c(OC)c2)cc1N | < 0.01 | 70.1 µM and > 100 µM | < 0.01 µM and 0.0429 µM | > 100 |  | > 100 | < 0.01 µM and 0.0397 µM | > 100 | < 0.01 µM and 0.0339 µM | > 100 |  | > 100 | < 0.01 | > 100 |  | > 100 |  | > 100 | < 0.01 µM and 0.0436 µM | > 100
9 | CC(=O)N1c2ccccc2Sc2cc(C(O)(C(F)(F)F)C(F)(F)F)ccc21 |  | > 10 µM |  | > 10 |  | > 10 |  | > 10 |  | > 10 |  | > 10 |  | > 10 |  | > 10 |  | > 10 |  | > 10
10 | O=C(NOCC1CC1)c1ccc(F)c(F)c1Nc1ccc(I)cc1Cl | 0.064 | 1.41 µM | 3.35 µM | 25.6 | 2.82 | > 100 | 0.141 µM | > 39.3 | 0.112 µM | 11.1 | 0.0927 | 1.18 | 2.24 | 9.73 | 1.13 | 18.6 | 0.0764 |  | 0.727 µM | 13.2
11 | O=C1OC2(c3ccccc3Oc3ccccc32)c2ccccc21 |  | > 100 µM |  | > 100 |  | > 100 |  | > 100 |  | > 100 |  | > 100 |  | > 100 |  | > 100 |  | > 100 |  | > 100
12 | Cc1cc(S(=O)(=O)Nc2nnc(-c3ccccc3)c(-c3ccccc3)n2)c(SCc2ccccc2)cc1Cl | 16.1 | 30.9 µM | 15 µM | 36.8 | 19.3 | 39.9 | 20.6 µM | 44.8 | 22.4 µM | 51.7 | 18.8 | 47.1 | 19.9 | 38.6 | 17.6 | 36.1 | 24.8 | 50.3 | 26.2 µM | 50.2
13 | OCCCCC#Cc1ccccc1C#Cc1ccccc1C(F)(F)F | 11.3 | 23.5 µM | 2.63 µM | 12.9 | 17.4 | 33.7 | 4.35 µM | 16.4 | 4.01 µM | 16.5 | 6.14 | 18.4 | 12 | 25.2 | 18.6 | 47.1 | 14.7 | 30.8 | 4.99 µM | 18.5

Source: PubChem BioAssay (NCI)
